From PubChem BioAssay AID686957 (The Scripps Research Institute Molecular Screening Center, 2013)
Activity calls are given as the source filed them. The rule behind the calls is not given here.

The compounds below were run against T-cell receptor (TCR)-CD3 interaction, human (TCR alpha chain TRAV4) (assay: potency of TCR-CD3 interaction inhibitors, dose response, biochemical, fluorescence, TAMRA-labeled TCR probe (AID 686957)). Conditions: TCR-CD3 binding.

| Compound | IC50 |
| --- | --- |
| O=C(NNC(=O)c1ccc2ccccc2c1O)c1cccs1 | > 94.1 µM (inactive) |
| Cc1ccccc1C(=O)NNC(=S)NC(=O)c1cccnc1 | > 94.1 µM (inactive) |
| O=C1Nc2ccccc2/C1=N\N=C\c1ccc(O)c(O)c1 | > 94.1 µM (inactive) |
| Cc1cc(C(=O)N/N=C/c2cc(Cl)cc([N+](=O)[O-])c2O)n[nH]1 | > 94.1 µM (inactive) |
| O=C(Cc1nnc(NC(=O)c2ccccc2)s1)N/N=C\c1ccc(O)c(O)c1 | > 94.1 µM (inactive) |
| CC/C(=N\NC(=O)c1ccccc1O)c1c(O)n(Cc2ccccc2)c(=O)[nH]c1=O | > 94.1 µM (inactive) |
| O=C(CCc1ccc(S(=O)(=O)N2CCOCC2)cc1)N/N=C/c1ccc(O)c(O)c1O | > 94.1 µM (inactive) |
| Cc1ccc(NC(=O)NNC(=O)c2cc3ccccc3cc2O)cc1 | > 94.1 µM (inactive) |
| COc1ccc(NC(=O)NNC(=O)c2cc3ccccc3cc2O)cc1 | > 94.1 µM (inactive) |
| COc1ccc(NS(=O)(=O)c2cc(NC(=O)/C=C/c3cc(OC)c(OC)c(OC)c3)ccc2N2CCCCC2)cc1 | > 94.1 µM (inactive) |
| O=C(Cc1ccccc1)NNC(=S)NC(=O)c1cccnc1 | > 94.1 µM (inactive) |
| O=C(CCNC(=O)c1ccc(Br)cc1)NNC(=O)c1ccccc1O | > 94.1 µM (inactive) |
| O=C(NNC(=S)NC(=O)c1cccc([N+](=O)[O-])c1)c1ccc(O)cc1 | > 94 µM (inactive) |
| C/C(=N\NC(=O)c1ccc(-c2ccccc2)cc1)C1C(=O)c2ccccc2C1=O | > 94.1 µM (inactive) |
| CC(=O)NC(CC(=O)NNC(=O)c1cc2ccccc2cc1O)c1ccccc1 (stereo unspecified) | > 94.1 µM (inactive) |
| Cc1c(C(=O)NNC(=O)c2ccccc2O)oc2ccccc12 | > 94 µM (inactive) |
| O=C(CNC(=O)c1ccccc1F)NNC(=O)c1ccccc1O | > 94.1 µM (inactive) |
| O=c1cc(-c2ccc(O)cc2)oc2c(O)c(O)c(O)c(O)c12 | > 94.2 µM (inactive) |
| O=C(N/N=C/c1c(O)n(CCc2ccccc2)c(=O)[nH]c1=O)c1ccccc1O | > 94 µM (inactive) |
| COc1ccccc1C(=O)NNC(=O)c1ccc(NC(=O)CC(C)C)cc1 | > 94.1 µM (inactive) |
| O=C(N/N=C/c1ccc(F)cc1)c1cc(-c2ccco2)nc2ccccc12 | > 94.1 µM (inactive) |
| NS(=O)(=O)c1ccc(NC(=O)c2cccc(N3C(=O)c4ccccc4C3=O)c2)cc1 | > 94.1 µM (inactive) |
| O=C(NC(=S)NNC(=O)c1ccccc1O)c1cccnc1 | > 94.1 µM (inactive) |

| Compound | IC50 |
| --- | --- |
| CN(C(=O)COC(=O)c1cc(-c2ccco2)nc2ccccc12)C1CCS(=O)(=O)C1 (stereo unspecified) | inactive |
| Oc1ccc(-c2cn3c(n2)SCC3)cc1O | inactive |
| O=C1NC(=S)S/C1=C\C=C\c1ccc([N+](=O)[O-])o1 | > 94.1 µM (inactive) |
| Oc1ccc(C[C@H]2NCCc3cc(O)c(O)cc32)cc1O | > 94.1 µM (inactive) |
| O=C(NNC(=O)c1ccc2ccccc2c1O)c1ccccc1Cl | > 94.1 µM (inactive) |
| COC(=O)CC1(C(=O)OC)Nc2cc(Cl)c(Cl)cc2S(=O)(=O)N1O (stereo unspecified) | > 94.2 µM (inactive) |
| COc1ccccc1N(C)S(=O)(=O)c1ccc(C(=O)NNC(=O)c2ccccc2O)cc1 | > 94.1 µM (inactive) |
| O=C(N/N=C/c1cc(Cl)cc([N+](=O)[O-])c1O)c1ccc2c(c1)OCO2 | > 94.1 µM (inactive) |
| COc1cc(/C=N/NC(=O)COc2ccc(Cl)cc2)ccc1OS(=O)(=O)c1ccc(C)cc1 | inactive |
| Cc1cccc(-n2c(O)c(/C=N/NC(=O)c3ccccc3Cl)c3ccccc3c2=O)n1 | > 94.1 µM (inactive) |
| CC(C)(C)c1ccc(C(=O)NCC(=O)NNC(=O)c2ccccc2O)cc1 | > 94.1 µM (inactive) |
| COc1ccc2nc(C)cc(SCC(=O)N/N=C/c3ccc(O)c(O)c3)c2c1 | > 94.1 µM (inactive) |
| O=C(N/N=C/c1cc([N+](=O)[O-])cc([N+](=O)[O-])c1O)/C(=C\c1cccs1)NC(=O)c1ccccc1 | > 94.1 µM (inactive) |
| Cc1ccc(-c2[nH]c3cc(C(=O)NCCCn4ccnc4)ccc3c(=O)c2O)cc1 | inactive |
| COc1cc2ccccc2cc1C(=O)NNC(=O)c1ccccc1O | > 94.2 µM (inactive) |
| Cc1ccc(S(=O)(=O)N2CCC(C(=O)NNC(=O)c3ccccc3O)CC2)cc1C | > 94.1 µM (inactive) |
| Cn1c(O)c(/C=N/NC(=O)c2cc3ccccc3cc2O)c2ccccc21 | > 94.1 µM (inactive) |
| COc1ccccc1C(=O)NNC(=O)c1ccc2ccccc2c1O | > 94.2 µM (inactive) |
| COc1cc(Br)cc2cc(C(=O)N3CCN(C(=O)c4ccco4)CC3)c(=O)oc12 | > 94.1 µM (inactive) |
| O=C1NC(=S)NC1=Cc1ccco1 | > 94.1 µM (inactive) |
| COc1ccc(C(=O)NNC(=S)NC(=O)c2cccs2)cc1 | > 94 µM (inactive) |
| O=C1COc2ccc(C(=O)COC(=O)/C=C/c3ccc(Br)o3)cc2N1 | > 94.1 µM (inactive) |
| C/C(=N\OCc1nc2ccccc2c(=O)n1/N=C/c1cc(C)cc([N+](=O)[O-])c1O)c1ccccc1 | > 94.1 µM (inactive) |
